These are literature values, as cited in paper PMC8513935.

Structures are written as SMILES.

Series [1] can be described thus: experimental, compiled by the authors from the literature (the ESI cites the sources). Conditions: 25 C.
The nature of series [2]: derived by the authors as gas->solvent minus gas->water (a hypothetical dry solvent; the ESI), not a two-phase measurement. Conditions: 25 C.

In the case of `CCCCCCCCl`, the values for the log K of transfer, gas to solvent in series [1] (Hexadecane) and in series [1] (Water) were 4.21 log10 K and -0.21 log10 K, respectively. Besides, the log K of transfer, water to solvent in series [2] (Hexadecane) was 4.42 log10 K.

As to `CCCCCN`, the log K of transfer, gas to solvent in series [1] (Hexadecane) is 3.14 log10 K; in series [1] (Water) it was 3 log10 K. The log K of transfer, water to solvent in series [2] (Hexadecane) is 0.139 log10 K.

As for `OC12CC3CC(CC(C3)C1)C2`, the log K of transfer, gas to solvent was 5.63 log10 K in series [1] (Hexadecane) and 5.15 log10 K in series [1] (Water). In addition, the log K of transfer, water to solvent in series [2] (Hexadecane) was 0.484 log10 K.

Turning to `c1ccc2cnccc2c1`, the log K of transfer, gas to solvent in series [1] (Chloroform) is 6.9 log10 K; in series [1] (Hexadecane), 5.59 log10 K; in series [1] (Water), 3.92 log10 K. The values for the log K of transfer, water to solvent in series [2] (Chloroform) and in series [2] (Hexadecane) were 2.98 log10 K and 1.67 log10 K, respectively.

For the molecule `c1ccc2ncccc2c1`, the figures for the log K of transfer, gas to solvent in series [1] (Chloroform), in series [1] (Hexadecane) and in series [1] (Water) were 6.98 log10 K, 5.45 log10 K and 4.2 log10 K, respectively. The log K of transfer, water to solvent in series [2] (Chloroform) is 2.78 log10 K; in series [2] (Hexadecane) it was 1.26 log10 K.

As for `NC1CCCCC1`, the log K of transfer, gas to solvent in series [1] (Hexadecane) was 3.79 log10 K; in series [1] (Water), 3.37 log10 K. Moreover, in series [2] (Hexadecane), the log K of transfer, water to solvent was 0.426 log10 K.

On to `CCCCCCCCCCCCO`, for which the log K of transfer, gas to solvent is 6.62 log10 K in series [1] (Hexadecane), 6.79 log10 K in series [1] (Hexane) and 2.44 log10 K in series [1] (Water). In addition, the values for the log K of transfer, water to solvent in series [2] (Hexadecane) and in series [2] (Hexane) were 4.18 log10 K and 4.35 log10 K, respectively.

For the molecule `CCCCCCCN`, the log K of transfer, gas to solvent is 4.15 log10 K in series [1] (Hexadecane) and 2.78 log10 K in series [1] (Water). Besides, the log K of transfer, water to solvent in series [2] (Hexadecane) was 1.37 log10 K.
